Assay results from US8153821B2, “Compounds” (priority 2008, dated 2012).

Key:
[1] = Dynamic vapor sorption (DVS); type: physicochemical; conditions: 25° C.
Method: Sorption isotherms were determined using a SMS DVS Intrinsic moisture sorption analyzer controlled by SMS Analysis suite software. The sample temperature was maintained at 25° C. by the instrument controls. The humidity was controlled by mixing streams of dry and wet nitrogen, with a total flow rate of 200 mL/min. The relative humidity was measured by a calibrated Rotronic probe (dynamic range of 1.0-100% RH), located near the sample. The weight change, (mass relaxation) of the sample as a function of % RH was constantly monitored by the microbalance (accuracy ±0.005 mg).
Typically a 5-20 mg sample was placed on the tared mesh stainless steel basket under ambient conditions. The sample was loaded and unloaded at 40% RH and 25° C. (typical ambient conditions). A moisture sorption isotherm was performed as outlined below (2 scans giving 1 complete cycle). The standard isotherm was performed at 25° C. at 10% RH intervals over a 0-90% RH range.

SMILES | melting point | DVS water uptake [1]
C(=C\[C@H]1CCNC1)/c1cncc(OC2CCOCC2)c1.O=C(O)C(=O)O | 180 to 181 °C | –
C(=C\[C@H]1CCNC1)/c1cncc(OC2CCOCC2)c1.O=C(O)C[C@H](O)C(=O)O [(R)-3-((E)-2-(pyrrolidin-3-yl)vinyl)-5-(tetrahydropyran-4-yloxy)pyridine mono-L-malate] | – | minimum water uptake up to 80% R.H.
